The source made the active and inactive calls. No rule for the calls is given here.
biological target: T1, Prolactin-releasing peptide receptor (Homo sapiens, UniProt P49683); assay: Displacement of [3H]-PrRP from human GPR10 receptor expressed in HEK293 cell membranes incubated for 90 mins by liquid scintillation counting method
T1 sequence (P49683 whole entry): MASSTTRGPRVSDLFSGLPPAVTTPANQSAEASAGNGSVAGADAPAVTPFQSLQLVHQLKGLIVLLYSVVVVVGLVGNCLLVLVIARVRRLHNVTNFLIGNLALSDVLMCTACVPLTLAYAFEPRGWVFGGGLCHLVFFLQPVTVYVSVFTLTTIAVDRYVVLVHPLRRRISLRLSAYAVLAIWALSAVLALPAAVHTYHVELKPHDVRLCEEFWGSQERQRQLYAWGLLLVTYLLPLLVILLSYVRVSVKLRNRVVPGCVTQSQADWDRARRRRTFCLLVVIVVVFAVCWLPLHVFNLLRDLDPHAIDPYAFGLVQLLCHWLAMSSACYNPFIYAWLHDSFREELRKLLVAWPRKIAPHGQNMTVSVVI

| Ki [nM] | Compound |
| --- | --- |
| 42 | COn1c(N[C@H](c2ccc(Cl)cc2)C(C)C)nc2c(c1=O)CN(C(=O)c1ccc3c(c1)OCCO3)CC2 |
| 56 | COn1c(N[C@@H](C)C2CCCCC2)nc2c(c1=O)CN(C(=O)c1ccc(C#N)cc1F)CC2 |
| 26 | COn1c(N[C@H](c2ccc(Cl)cc2)C(C)C)nc2c(c1=O)CN(C(=O)c1cc3ccccc3cn1)CC2 |
| 8 | CC[C@H](Nc1nc2c(c(=O)n1OC)CN(C(=O)c1ccc(C#N)cc1F)CC2)c1ccc(C(F)(F)F)cc1 |
| 12 | COn1c(N[C@@H](C)c2ccc(C(F)(F)F)cc2)nc2c(c1=O)CN(C(=O)/C=C/c1ccc(Cl)cc1)CC2 |
| 33 | CC(C)COn1c(N[C@@H](C)c2ccc(C(F)(F)F)cc2)nc2c(c1=O)CN(C(=O)c1ccc(C#N)cc1F)CC2 |
| 15 | COn1c(N[C@@H](C)c2ccc(C(F)(F)F)cc2)nc2c(c1=O)CN(C(=O)c1cc3ccccc3s1)CC2 |
| 8 | COn1c(N[C@@H](C)c2ccc(C(F)(F)F)cc2)nc2c(c1=O)CN(C(=O)c1ccc(C)c(F)c1)CC2 |
| 61 | COn1c(N[C@H](C)C2CCCCC2)nc2c(c1=O)CN(C(=O)c1ccc(C#N)cc1F)CC2 |
| 13 | COn1c(N[C@H](c2ccc(Cl)cc2)C(C)C)nc2c(c1=O)CN(C(=O)c1cc3ccccn3n1)CC2 |
| 10 | COn1c(N[C@@H](C)c2ccc(C(F)(F)F)cc2)nc2c(c1=O)CN(C(=O)c1ccc3c(c1)OCCO3)CC2 |
| 24 | COn1c(N[C@H](c2ccc(Cl)cc2)C(C)C)nc2c(c1=O)CN(C(=O)c1ccc3c(c1)CCC(=O)N3C)CC2 |
| 20 | COn1c(N[C@@H](C)c2ccc(C(F)(F)F)cc2)nc2c(c1=O)CN(C(=O)c1cc(-c3cccs3)n(C)n1)CC2 |
| 31 | COn1c(N[C@H](c2ccc(Cl)cc2)C(C)C)nc2c(c1=O)CN(C(=O)c1ccc(-n3ccnc3)cc1)CC2 |
| 108 | COn1c(N[C@@H](C)C2CCCCC2)nc2c(c1=O)CN(C(=O)c1ccc(Cl)cc1)CC2 |

| Compound | Ki [nM] |
| --- | --- |
| COn1c(NC(C)c2ccc(Cl)cc2)nc2c(c1=O)CN(C(=O)COc1ccc(Cl)cc1)CC2 (single isomer, unassigned) | 15 |
| COn1c(N[C@@H](C)c2ccc(C(F)(F)F)cc2)nc2c(c1=O)CN(C(=O)CCc1ccc(Cl)cc1)CC2 | 134 |
| COn1c(N[C@@H](C)c2ccc(C(F)(F)F)cc2)nc2c(c1=O)CN(C(=O)CSc1ccc(Cl)cc1)CC2 | 8 |
| COn1c(N[C@@H](C)c2ccc(C(F)(F)F)cc2)nc2c(c1=O)CN(C(=O)COc1ccc(Cl)cc1)CC2 | 8 |
| COn1c(N[C@@H](C)c2ccc(C(F)(F)F)cc2)nc2c(c1=O)CN(C(=O)c1ccc(C)s1)CC2 | 10 |
| COn1c(N[C@@H](C)c2ccc(C(F)(F)F)cc2)nc2c(c1=O)CN(C(=O)c1ccc(C)c(C)c1)CC2 | 4 |
| CCOn1c(N[C@@H](C)c2ccc(C(F)(F)F)cc2)nc2c(c1=O)CN(C(=O)c1ccc(C#N)cc1F)CC2 | 5 |

biological target: T1, Prolactin-releasing peptide receptor; assay: Antagonist activity against human GPR10 receptor expressed in HEK293 cells assessed as inhibition of PrRP-induced intracellular calcium mobilization pre-incubated for 15 mins before PrRP addition by Fluo-8 dye based fluorescence imaging plate reader method; type: functional, cell-based

| Compound | IC50 [nM] |
| --- | --- |
| COn1c(NC(C)c2ccc(Cl)cc2)nc2c(c1=O)CN(C(=O)COc1ccc(Cl)cc1)CC2 (single isomer, unassigned) | 1180 |
| COn1c(N[C@@H](C)c2ccc(C(F)(F)F)cc2)nc2c(c1=O)CN(C(=O)CCc1ccc(Cl)cc1)CC2 | 3900 |
| COn1c(N[C@@H](C)c2ccc(C(F)(F)F)cc2)nc2c(c1=O)CN(C(=O)CSc1ccc(Cl)cc1)CC2 | 1140 |
| COn1c(N[C@@H](C)c2ccc(C(F)(F)F)cc2)nc2c(c1=O)CN(C(=O)COc1ccc(Cl)cc1)CC2 | 678 |
| COn1c(N[C@@H](C)c2ccc(C(F)(F)F)cc2)nc2c(c1=O)CN(C(=O)c1ccc(C)s1)CC2 | 1130 |
| COn1c(N[C@@H](C)c2ccc(C(F)(F)F)cc2)nc2c(c1=O)CN(C(=O)c1ccc(C)c(C)c1)CC2 | 1030 |
| COn1c(N[C@@H](C)c2ccc(C(F)(F)F)cc2)nc2c(c1=O)CN(C(=O)/C=C/c1ccc(Cl)cc1)CC2 | 5790 |
| CCOn1c(N[C@@H](C)c2ccc(C(F)(F)F)cc2)nc2c(c1=O)CN(C(=O)c1ccc(C#N)cc1F)CC2 | 227 |

system: Rattus norvegicus; assay: Inhibition of restraint stress-induced defecation in Wistar rat at 5 mL/kg, po dosed 1 or 2 hrs before restraint stress; type: functional, organism-based

| Compound | inhibition |
| --- | --- |
| COn1c(NC(C)c2ccc(Cl)cc2)nc2c(c1=O)CN(C(=O)COc1ccc(Cl)cc1)CC2 (single isomer, unassigned) | Active |
| COn1c(N[C@@H](C)c2ccc(C(F)(F)F)cc2)nc2c(c1=O)CN(C(=O)CCc1ccc(Cl)cc1)CC2 | Active |
| COn1c(N[C@H](c2ccc(Cl)cc2)C(C)C)nc2c(c1=O)CN(C(=O)c1ccc3c(c1)OCCO3)CC2 | Active |
| COn1c(N[C@@H](C)C2CCCCC2)nc2c(c1=O)CN(C(=O)c1ccc(C#N)cc1F)CC2 | Active |
| COn1c(N[C@@H](C)c2ccc(C(F)(F)F)cc2)nc2c(c1=O)CN(C(=O)CSc1ccc(Cl)cc1)CC2 | Active |
| COn1c(N[C@@H](C)c2ccc(C(F)(F)F)cc2)nc2c(c1=O)CN(C(=O)COc1ccc(Cl)cc1)CC2 | Active |
| COn1c(N[C@H](c2ccc(Cl)cc2)C(C)C)nc2c(c1=O)CN(C(=O)c1cc3ccccc3cn1)CC2 | Active |
| COn1c(N[C@@H](C)c2ccc(C(F)(F)F)cc2)nc2c(c1=O)CN(C(=O)c1ccc(C)s1)CC2 | Active |
| COn1c(N[C@@H](C)c2ccc(C(F)(F)F)cc2)nc2c(c1=O)CN(C(=O)c1ccc(C)c(C)c1)CC2 | Active |
| CC[C@H](Nc1nc2c(c(=O)n1OC)CN(C(=O)c1ccc(C#N)cc1F)CC2)c1ccc(C(F)(F)F)cc1 | Active |
| COn1c(N[C@@H](C)c2ccc(C(F)(F)F)cc2)nc2c(c1=O)CN(C(=O)/C=C/c1ccc(Cl)cc1)CC2 | Active |
| CC(C)COn1c(N[C@@H](C)c2ccc(C(F)(F)F)cc2)nc2c(c1=O)CN(C(=O)c1ccc(C#N)cc1F)CC2 | Active |
| COn1c(N[C@@H](C)c2ccc(C(F)(F)F)cc2)nc2c(c1=O)CN(C(=O)c1ccc(C)c(F)c1)CC2 | Active |
| COn1c(N[C@H](C)C2CCCCC2)nc2c(c1=O)CN(C(=O)c1ccc(C#N)cc1F)CC2 | Active |
| COn1c(N[C@H](c2ccc(Cl)cc2)C(C)C)nc2c(c1=O)CN(C(=O)c1cc3ccccn3n1)CC2 | Active |
| COn1c(N[C@@H](C)c2ccc(C(F)(F)F)cc2)nc2c(c1=O)CN(C(=O)c1ccc3c(c1)OCCO3)CC2 | Active |
| COn1c(N[C@H](c2ccc(Cl)cc2)C(C)C)nc2c(c1=O)CN(C(=O)c1ccc3c(c1)CCC(=O)N3C)CC2 | Active |
| CCOn1c(N[C@@H](C)c2ccc(C(F)(F)F)cc2)nc2c(c1=O)CN(C(=O)c1ccc(C#N)cc1F)CC2 | Active |
| COn1c(N[C@@H](C)c2ccc(C(F)(F)F)cc2)nc2c(c1=O)CN(C(=O)c1cc(-c3cccs3)n(C)n1)CC2 | Active |
| COn1c(N[C@H](c2ccc(Cl)cc2)C(C)C)nc2c(c1=O)CN(C(=O)c1ccc(-n3ccnc3)cc1)CC2 | Active |
| COn1c(N[C@@H](C)C2CCCCC2)nc2c(c1=O)CN(C(=O)c1ccc(Cl)cc1)CC2 | Active |

system: Rattus norvegicus; assay: Inhibition of tail-pinch stress-induced feeding behavior in Wistar rat at 5 mL/kg, po dosed 1 or 2 hrs before tail-pinch stimulus; type: functional, organism-based

| Compound | inhibition |
| --- | --- |
| COn1c(NC(C)c2ccc(Cl)cc2)nc2c(c1=O)CN(C(=O)COc1ccc(Cl)cc1)CC2 (single isomer, unassigned) | Active |
| COn1c(N[C@@H](C)c2ccc(C(F)(F)F)cc2)nc2c(c1=O)CN(C(=O)CCc1ccc(Cl)cc1)CC2 | Active |
| COn1c(N[C@H](c2ccc(Cl)cc2)C(C)C)nc2c(c1=O)CN(C(=O)c1ccc3c(c1)OCCO3)CC2 | Active |
| COn1c(N[C@@H](C)C2CCCCC2)nc2c(c1=O)CN(C(=O)c1ccc(C#N)cc1F)CC2 | Active |
| COn1c(N[C@@H](C)c2ccc(C(F)(F)F)cc2)nc2c(c1=O)CN(C(=O)CSc1ccc(Cl)cc1)CC2 | Active |
| COn1c(N[C@@H](C)c2ccc(C(F)(F)F)cc2)nc2c(c1=O)CN(C(=O)COc1ccc(Cl)cc1)CC2 | Active |
| COn1c(N[C@H](c2ccc(Cl)cc2)C(C)C)nc2c(c1=O)CN(C(=O)c1cc3ccccc3cn1)CC2 | Active |
| COn1c(N[C@@H](C)c2ccc(C(F)(F)F)cc2)nc2c(c1=O)CN(C(=O)c1ccc(C)s1)CC2 | Active |
| COn1c(N[C@@H](C)c2ccc(C(F)(F)F)cc2)nc2c(c1=O)CN(C(=O)c1ccc(C)c(C)c1)CC2 | Active |
| CC[C@H](Nc1nc2c(c(=O)n1OC)CN(C(=O)c1ccc(C#N)cc1F)CC2)c1ccc(C(F)(F)F)cc1 | Active |
| COn1c(N[C@@H](C)c2ccc(C(F)(F)F)cc2)nc2c(c1=O)CN(C(=O)/C=C/c1ccc(Cl)cc1)CC2 | Active |
| CC(C)COn1c(N[C@@H](C)c2ccc(C(F)(F)F)cc2)nc2c(c1=O)CN(C(=O)c1ccc(C#N)cc1F)CC2 | Active |
| COn1c(N[C@@H](C)c2ccc(C(F)(F)F)cc2)nc2c(c1=O)CN(C(=O)c1ccc(C)c(F)c1)CC2 | Active |
| COn1c(N[C@H](C)C2CCCCC2)nc2c(c1=O)CN(C(=O)c1ccc(C#N)cc1F)CC2 | Active |
| COn1c(N[C@H](c2ccc(Cl)cc2)C(C)C)nc2c(c1=O)CN(C(=O)c1cc3ccccn3n1)CC2 | Active |
| COn1c(N[C@@H](C)c2ccc(C(F)(F)F)cc2)nc2c(c1=O)CN(C(=O)c1ccc3c(c1)OCCO3)CC2 | Active |
| COn1c(N[C@H](c2ccc(Cl)cc2)C(C)C)nc2c(c1=O)CN(C(=O)c1ccc3c(c1)CCC(=O)N3C)CC2 | Active |
| CCOn1c(N[C@@H](C)c2ccc(C(F)(F)F)cc2)nc2c(c1=O)CN(C(=O)c1ccc(C#N)cc1F)CC2 | Active |
| COn1c(N[C@@H](C)c2ccc(C(F)(F)F)cc2)nc2c(c1=O)CN(C(=O)c1cc(-c3cccs3)n(C)n1)CC2 | Active |
| COn1c(N[C@H](c2ccc(Cl)cc2)C(C)C)nc2c(c1=O)CN(C(=O)c1ccc(-n3ccnc3)cc1)CC2 | Active |
| COn1c(N[C@@H](C)C2CCCCC2)nc2c(c1=O)CN(C(=O)c1ccc(Cl)cc1)CC2 | Active |

From ChEMBL document CHEMBL3727366, “Heterocyclic compounds for the treatment of stress-related conditions” (2013)
